Values of other authors as cited in patent US20070009535A1 (priority 2005, published 2007).

Conditions: several oncolytics tested in preclinical models

O[C@@H](COc1cccc2ncccc12)CN1CCN([C@@H]2c3ccccc3[C@@H]3[C@H](c4ccccc42)C3(F)F)CC1 [zosuquidar]
pharmacokinetic interactions with oncolytics: minimal pharmacokinetic (PK) interactions
